Source: the supplement of paper PMC10307832

Columns and labels:
Assay in all cases: relative viability (nuclei count vs DMSO), 5 days (fraction); higher = more cells survive
LK-2 = tested on: LK-2
Summary of the method: (§1)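 Lung cancer cell lines were seeded in 1536-well plates and dosed by pin tool the next day, with either a single drug or a fixed anchor-drug dose combined with five library-drug doses (not always all listed) spaced in √10 steps. Five days later, one step fixed the cells and stained their nuclei (final 0.05% Triton X-100, 1% formaldehyde, 1 ug/ml Hoechst), and nuclei were counted on 4× images. Relative viability is the nuclei count in treated wells divided by the count in vehicle wells, and each value is the median of duplicate plates.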

SW 900 = tested on: SW 900
Summary of the method: as §1

NCI-H1563 = tested on: NCI-H1563
Summary of the method: as §1

EMC-BAC-2 = tested on: EMC-BAC-2
Summary of the method: as §1

COR-L 105 = tested on: COR-L 105
Summary of the method: as §1

SK-MES-1 = tested on: SK-MES-1
Summary of the method: as §1

NCI-H1734 = tested on: NCI-H1734
Summary of the method: as §1

EKVX = tested on: EKVX
Summary of the method: as §1

NCI-H23 = tested on: NCI-H23
Summary of the method: as §1

ChaGo-K-1 = tested on: ChaGo-K-1
Summary of the method: as §1

H3255 = tested on: H3255
Summary of the method: as §1

NCI-H441 = tested on: NCI-H441
Summary of the method: as §1

NCI-H520 = tested on: NCI-H520
Summary of the method: as §1

NCI-H596 = tested on: NCI-H596
Summary of the method: as §1

LOU-NH91 = tested on: LOU-NH91
Summary of the method: as §1

NCI-H1666 = tested on: NCI-H1666
Summary of the method: as §1

NCI-H1975 = tested on: NCI-H1975
Summary of the method: as §1

PC-3 [JPC-3] = tested on: PC-3 [JPC-3]
Summary of the method: as §1

NCI-H1755 = tested on: NCI-H1755
Summary of the method: as §1

A-427 = tested on: A-427
Summary of the method: as §1

NCI-H2170 = tested on: NCI-H2170
Summary of the method: as §1

Structure (SMILES): Nc1ccn([C@@H]2O[C@H](CO)[C@@H](O)[C@@H]2O)c(=O)n1 [Cytarabine] + CCNC(=O)c1noc(-c2cc(C(C)C)c(O)cc2O)c1-c1ccc(CN2CCOCC2)cc1 [Luminespib] (partner 0.01 µM)
- relative viability (LK-2; first compound 0.005 µM): 0.193
- relative viability (LK-2; first compound 0.01581 µM): 0.187
- relative viability (LK-2; first compound 0.05 µM): 0.197
- relative viability (LK-2; first compound 0.1581 µM): 0.155
- relative viability (LK-2; first compound 0.5 µM): 0.176
- relative viability (SW 900; first compound 0.005 µM): 0.16
- relative viability (SW 900; first compound 0.01581 µM): 0.184
- relative viability (SW 900; first compound 0.05 µM): 0.186
- relative viability (SW 900; first compound 0.1581 µM): 0.142
- relative viability (SW 900; first compound 0.5 µM): 0.137
- relative viability (NCI-H1563; first compound 0.005 µM): 0.628
- relative viability (NCI-H1563; first compound 0.01581 µM): 0.506
- relative viability (NCI-H1563; first compound 0.05 µM): 0.432
- relative viability (NCI-H1563; first compound 0.1581 µM): 0.407
- relative viability (NCI-H1563; first compound 0.5 µM): 0.455
- relative viability (EMC-BAC-2; first compound 0.005 µM): 0.885
- relative viability (EMC-BAC-2; first compound 0.01581 µM): 0.742
- relative viability (EMC-BAC-2; first compound 0.05 µM): 0.346
- relative viability (EMC-BAC-2; first compound 0.1581 µM): 0.259
- relative viability (EMC-BAC-2; first compound 0.5 µM): 0.244
- relative viability (COR-L 105; first compound 0.005 µM): 0.783
- relative viability (COR-L 105; first compound 0.01581 µM): 0.667
- relative viability (COR-L 105; first compound 0.05 µM): 0.739
- relative viability (COR-L 105; first compound 0.1581 µM): 0.405
- relative viability (COR-L 105; first compound 0.5 µM): 0.278
- relative viability (SK-MES-1; first compound 0.005 µM): 0.934
- relative viability (SK-MES-1; first compound 0.01581 µM): 0.565
- relative viability (SK-MES-1; first compound 0.05 µM): 0.319
- relative viability (SK-MES-1; first compound 0.1581 µM): 0.226
- relative viability (SK-MES-1; first compound 0.5 µM): 0.232
- relative viability (NCI-H1734; first compound 0.005 µM): 0.251
- relative viability (NCI-H1734; first compound 0.01581 µM): 0.162
- relative viability (NCI-H1734; first compound 0.05 µM): 0.138
- relative viability (NCI-H1734; first compound 0.1581 µM): 0.139
- relative viability (NCI-H1734; first compound 0.5 µM): 0.134
- relative viability (EKVX; first compound 0.005 µM): 0.918
- relative viability (EKVX; first compound 0.01581 µM): 0.743
- relative viability (EKVX; first compound 0.05 µM): 0.736
- relative viability (EKVX; first compound 0.1581 µM): 0.287
- relative viability (EKVX; first compound 0.5 µM): 0.186
- relative viability (NCI-H23; first compound 0.005 µM): 0.179
- relative viability (NCI-H23; first compound 0.01581 µM): 0.192
- relative viability (NCI-H23; first compound 0.05 µM): 0.197
- relative viability (NCI-H23; first compound 0.1581 µM): 0.199
- relative viability (NCI-H23; first compound 0.5 µM): 0.188
- relative viability (ChaGo-K-1; first compound 0.005 µM): 0.649
- relative viability (ChaGo-K-1; first compound 0.01581 µM): 0.43
- relative viability (ChaGo-K-1; first compound 0.05 µM): 0.263
- relative viability (ChaGo-K-1; first compound 0.1581 µM): 0.206
- relative viability (ChaGo-K-1; first compound 0.5 µM): 0.188
- relative viability (H3255; first compound 0.005 µM): 0.98
- relative viability (H3255; first compound 0.01581 µM): 0.763
- relative viability (H3255; first compound 0.05 µM): 0.69
- relative viability (H3255; first compound 0.1581 µM): 0.662
- relative viability (H3255; first compound 0.5 µM): 0.554
- relative viability (NCI-H441; first compound 0.005 µM): 0.283
- relative viability (NCI-H441; first compound 0.01581 µM): 0.252
- relative viability (NCI-H441; first compound 0.05 µM): 0.354
- relative viability (NCI-H441; first compound 0.1581 µM): 0.266
- relative viability (NCI-H441; first compound 0.5 µM): 0.271
- relative viability (NCI-H520; first compound 0.005 µM): 0.218
- relative viability (NCI-H520; first compound 0.01581 µM): 0.216
- relative viability (NCI-H520; first compound 0.05 µM): 0.2
- relative viability (NCI-H520; first compound 0.1581 µM): 0.233
- relative viability (NCI-H520; first compound 0.5 µM): 0.223
- relative viability (NCI-H596; first compound 0.005 µM): 0.933
- relative viability (NCI-H596; first compound 0.01581 µM): 0.841
- relative viability (NCI-H596; first compound 0.05 µM): 0.685
- relative viability (NCI-H596; first compound 0.1581 µM): 0.548
- relative viability (NCI-H596; first compound 0.5 µM): 0.388
- relative viability (LOU-NH91; first compound 0.005 µM): 0.362
- relative viability (LOU-NH91; first compound 0.01581 µM): 0.361
- relative viability (LOU-NH91; first compound 0.05 µM): 0.321
- relative viability (LOU-NH91; first compound 0.1581 µM): 0.316
- relative viability (LOU-NH91; first compound 0.5 µM): 0.317
- relative viability (NCI-H1666; first compound 0.005 µM): 1.01
- relative viability (NCI-H1666; first compound 0.01581 µM): 0.94
- relative viability (NCI-H1666; first compound 0.05 µM): 0.675
- relative viability (NCI-H1666; first compound 0.1581 µM): 0.539
- relative viability (NCI-H1666; first compound 0.5 µM): 0.579
- relative viability (NCI-H1975; first compound 0.005 µM): 0.536
- relative viability (NCI-H1975; first compound 0.01581 µM): 0.316
- relative viability (NCI-H1975; first compound 0.05 µM): 0.193
- relative viability (NCI-H1975; first compound 0.1581 µM): 0.209
- relative viability (NCI-H1975; first compound 0.5 µM): 0.171
- relative viability (PC-3 [JPC-3]; first compound 0.005 µM): 0.754
- relative viability (PC-3 [JPC-3]; first compound 0.01581 µM): 0.73
- relative viability (PC-3 [JPC-3]; first compound 0.05 µM): 0.782
- relative viability (PC-3 [JPC-3]; first compound 0.1581 µM): 0.453
- relative viability (PC-3 [JPC-3]; first compound 0.5 µM): 0.551
- relative viability (NCI-H1755; first compound 0.005 µM): 0.879
- relative viability (NCI-H1755; first compound 0.01581 µM): 0.222
- relative viability (NCI-H1755; first compound 0.05 µM): 0.328
- relative viability (NCI-H1755; first compound 0.1581 µM): 0.274
- relative viability (NCI-H1755; first compound 0.5 µM): 0.378
- relative viability (A-427; first compound 0.005 µM): 0.708
- relative viability (A-427; first compound 0.01581 µM): 0.425
- relative viability (A-427; first compound 0.05 µM): 0.238
- relative viability (A-427; first compound 0.1581 µM): 0.186
- relative viability (A-427; first compound 0.5 µM): 0.161
- relative viability (NCI-H2170; first compound 0.005 µM): 0.761
- relative viability (NCI-H2170; first compound 0.01581 µM): 0.431
- relative viability (NCI-H2170; first compound 0.05 µM): 0.248
- relative viability (NCI-H2170; first compound 0.1581 µM): 0.23
- relative viability (NCI-H2170; first compound 0.5 µM): 0.158
